Experimental data reported in PMC7155171, “Probing the Open Global Health Chemical Diversity Library for Multistage-Active Starting Points for Next-Generation Antimalarials” (ACS Infectious Diseases, 2020).

Columns and labels:
[1] = tested on: P. berghei liver stage (PbLuc); assay: P. berghei luciferase liver stage (PbLuc) assay in HepG2-A16-CD81 hepatocytes; type: cell-based, Plasmodium berghei; conditions: Plasmodium berghei; for IC50: HepG2-A16-CD81, 12pt dose response, read-out: PbLuc 12pt dose response: IC50; for Emax: HepG2-A16-CD81, 48 h, 12pt dose response, maximum inhibition
[2] = molecular target: recombinant firefly luciferase (Photinus pyralis, UniProt P08659); assay: biochemical; conditions: dose response; for Emax: maximum inhibition, read-out: rLuc inhibition dose response: Maximum inhibition (%); for IC50: read-out: rLuc inhibition dose response: IC50
Sequence of recombinant firefly luciferase (P08659 whole entry): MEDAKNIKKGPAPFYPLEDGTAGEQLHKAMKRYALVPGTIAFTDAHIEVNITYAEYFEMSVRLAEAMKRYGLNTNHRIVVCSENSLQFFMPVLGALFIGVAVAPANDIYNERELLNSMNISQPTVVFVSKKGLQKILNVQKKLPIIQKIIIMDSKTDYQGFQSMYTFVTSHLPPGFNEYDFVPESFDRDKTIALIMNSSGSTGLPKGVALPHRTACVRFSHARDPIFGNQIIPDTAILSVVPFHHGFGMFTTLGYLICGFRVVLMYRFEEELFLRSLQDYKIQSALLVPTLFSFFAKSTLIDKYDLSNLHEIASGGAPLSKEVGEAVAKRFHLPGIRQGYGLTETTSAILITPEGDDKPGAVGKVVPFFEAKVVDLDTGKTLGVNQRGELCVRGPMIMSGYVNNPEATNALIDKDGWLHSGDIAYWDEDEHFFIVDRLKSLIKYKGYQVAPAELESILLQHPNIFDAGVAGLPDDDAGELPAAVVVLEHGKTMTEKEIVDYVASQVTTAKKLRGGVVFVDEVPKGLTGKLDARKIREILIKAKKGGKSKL

[3] = HepG2 cytotoxicity screening (CellTiter-Glo); conditions: human, uninfected HepG2-A16-CD81 (EGFP) hepatocytes
[4] = tested on: HepG2-A16-CD81 hepatocytes; assay: HepG2 cytotoxicity screening (CellTiter-Glo); conditions: for HepG2 cytotoxicity 12pt dose response: Maximum inhibition (%): 12pt dose response

SMILES: Fc1ccc(N2CCCN(c3ccc(Cn4ccnc4)cn3)CC2)cc1 [UCSD-0828381]
- IC50 [1]: 1.16 µM
- Emax [1]: 98.9%
- Emax [2]: 34.7%
- IC50 [2]: > 25 µM
- IC50 [3]: 23.9 µM
- HepG2 Cytotoxicity primary screen (2uM): % Inhibition [4]: 3.83%
- HepG2 cytotoxicity 12pt dose response: Maximum inhibition (%) [4]: 52.6%

SMILES: COc1ccc2cc(C3CN(C(=O)CCNC(C)=O)CCO3)ccc2c1 (stereo not drawn) [UCSD-0829391]
- IC50 [1]: 0.333 µM
- Emax [1]: 85.2%
- inhibition at 2 µM ([1]; HepG2-A16-CD81, primary screen, 2 uM): -1.1%
- Emax [2]: 67.5%
- IC50 [2]: 9.9 µM
- IC50 [3]: > 25 µM
- inhibition at 2 µM [3]: -3.5%
- HepG2 cytotoxicity 12pt dose response: Maximum inhibition (%) [4]: 2.45%

SMILES: c1ccc(OCCNc2ncnc3sc4c(c23)CCNC4)cc1 [UCSD-0829760]
- IC50 [1]: 9.15 µM
- Emax [1]: 73%
- Emax [2]: 7.54%
- IC50 [2]: > 25 µM
- IC50 [3]: > 25 µM
- inhibition at 2 µM [3]: -2.42%
- HepG2 cytotoxicity 12pt dose response: Maximum inhibition (%) [4]: 42.9%

SMILES: CC(=O)N1CCN(Cc2cccc3c2sc2ccccc23)CC(O)C1 (stereo not drawn) [UCSD-0830872]
- IC50 [1]: 5.87 µM
- Emax [1]: 91%
- Emax [2]: 15.6%
- IC50 [2]: > 25 µM
- IC50 [3]: > 25 µM
- inhibition at 2 µM [3]: 6.03%
- HepG2 cytotoxicity 12pt dose response: Maximum inhibition (%) [4]: 10.8%

SMILES: CCc1cnc(N)nc1NC(C)c1ccc(C)c(C)c1 (stereo not drawn) [UCSD-0831195]
- IC50 [1]: 0.433 µM
- Emax [1]: 89.9%
- Emax [2]: 17.1%
- IC50 [2]: > 50 µM
- IC50 [3]: > 25 µM
- inhibition at 2 µM [3]: 3.76%
- HepG2 cytotoxicity 12pt dose response: Maximum inhibition (%) [4]: 56%

SMILES: CNC(=O)CCC(=O)N1CCOC(c2ccc3cc(OC)ccc3c2)C1 (stereo not drawn) [UCSD-0831800]
- IC50 [1]: 0.000954 µM
- Emax [1]: 88.9%
- Emax [2]: 66.4%
- IC50 [2]: 23.5 µM
- IC50 [3]: > 25 µM
- inhibition at 2 µM [3]: -0.85%
- inhibition at 10 µM [3]: 3.9%
- HepG2 cytotoxicity 12pt dose response: Maximum inhibition (%) [4]: 1%

SMILES: COc1ccc(-c2cc(CNc3ncnc4c3CCNCC4)no2)cc1 [UCSD-0833048]
- IC50 [1]: 10.2 µM
- Emax [1]: 91.8%
- Emax [2]: 0.184%
- IC50 [2]: > 25 µM
- IC50 [3]: > 25 µM
- HepG2 Cytotoxicity primary screen (2uM): % Inhibition [4]: 4.02%
- HepG2 cytotoxicity 12pt dose response: Maximum inhibition (%) [4]: 49.3%

SMILES: CC(C)(CO)Nc1ccc(-c2nc(-c3ccccc3F)no2)cn1 [UCSD-0833103]
- IC50 [1]: < 0.000141 µM
- Emax [1]: 98.5%
- Emax [2]: 93.7%
- IC50 [2]: 0.045 µM
- IC50 [3]: > 25 µM
- inhibition at 2 µM [3]: 2.86%
- HepG2 cytotoxicity 12pt dose response: Maximum inhibition (%) [4]: 34.7%

SMILES: CC(Nc1ncnc2c1CCNC2)c1ccc2c(c1)CCCC2 (stereo not drawn) [UCSD-0833335]
- IC50 [1]: 9.75 µM
- Emax [1]: 79.1%
- Emax [2]: 12.6%
- IC50 [2]: > 25 µM
- IC50 [3]: 18.4 µM
- HepG2 Cytotoxicity primary screen (2uM): % Inhibition [4]: 0.57%
- HepG2 cytotoxicity 12pt dose response: Maximum inhibition (%) [4]: 57.6%

SMILES: Cc1cc(NC(=O)c2ccc(CN3CC[C@H](O)C3)cc2)ccc1F [UCSD-0834308]
- IC50 [1]: < 0.000282 µM
- Emax [1]: 104%
- Emax [2]: 100%
- IC50 [2]: < 0.0244 µM
- IC50 [3]: > 50 µM
- inhibition at 2 µM [3]: 7.88%
- HepG2 cytotoxicity 12pt dose response: Maximum inhibition (%) [4]: 10.3%

SMILES: CCOC(=O)N1CCN(c2nc(CCN)nc3sc(C)c(C)c23)CC1 [UCSD-0834429]
- IC50 [1]: 8.74 µM
- Emax [1]: 87.7%
- Emax [2]: 5.96%
- IC50 [2]: > 25 µM
- IC50 [3]: > 25 µM
- inhibition at 2 µM [3]: -5.69%
- inhibition at 10 µM [3]: -49.3%
- HepG2 cytotoxicity 12pt dose response: Maximum inhibition (%) [4]: 28%

SMILES: CCCc1cncnc1N1CCC(NCc2cc3ccccc3[nH]2)CC1 [UCSD-0834906]
- IC50 [1]: 1.84 µM
- Emax [1]: 97.5%
- Emax [2]: 31.4%
- IC50 [2]: > 25 µM
- IC50 [3]: > 25 µM
- inhibition at 2 µM [3]: 7.01%
- HepG2 cytotoxicity 12pt dose response: Maximum inhibition (%) [4]: 32.8%

SMILES: COc1cccc(-c2noc3c2CN(c2ncnc4c2CCC4)CC3)c1 [UCSD-0837523]
- IC50 [1]: 5.79 µM
- Emax [1]: 84.4%
- Emax [2]: 15.5%
- IC50 [2]: > 25 µM
- IC50 [3]: 8.51 µM
- inhibition at 2 µM [3]: -0.62%
- HepG2 cytotoxicity 12pt dose response: Maximum inhibition (%) [4]: 52%

SMILES: Cc1csc2ncnc(N3CCC(Cn4cc(C(C)(C)N)nn4)CC3)c12 [UCSD-0838044]
- IC50 [1]: 11.4 µM
- Emax [1]: 71.7%
- Emax [2]: 21.9%
- IC50 [2]: > 25 µM
- IC50 [3]: > 25 µM
- HepG2 Cytotoxicity primary screen (2uM): % Inhibition [4]: 4.60%
- HepG2 cytotoxicity 12pt dose response: Maximum inhibition (%) [4]: 46.5%

SMILES: COc1ccc2cc(C3CN(C(=O)N(C)C)CCO3)ccc2c1 (stereo not drawn) [UCSD-0838135]
- IC50 [1]: < 0.000141 µM
- Emax [1]: 82.4%
- Emax [2]: 91.8%
- IC50 [2]: 3.45 µM
- IC50 [3]: > 25 µM
- inhibition at 2 µM [3]: -0.4%
- HepG2 cytotoxicity 12pt dose response: Maximum inhibition (%) [4]: 6.4%

SMILES: COCc1noc(-c2ccc(N3CCCCC3CO)nc2)n1 (stereo not drawn) [UCSD-0838277]
- IC50 [1]: < 0.000141 µM
- Emax [1]: 82.5%
- Emax [2]: 73.7%
- IC50 [2]: 6.29 µM
- IC50 [3]: > 25 µM
- inhibition at 2 µM [3]: -1.51%
- HepG2 cytotoxicity 12pt dose response: Maximum inhibition (%) [4]: 0.196%

SMILES: Nc1nccc(N2CCCC(CO)(CCOc3ccccc3)C2)n1 (stereo not drawn) [UCSD-0838947]
- IC50 [1]: 6.46 µM
- Emax [1]: 89.7%
- Emax [2]: 8.22%
- IC50 [2]: > 25 µM
- IC50 [3]: > 25 µM
- inhibition at 2 µM [3]: -2.96%
- HepG2 cytotoxicity 12pt dose response: Maximum inhibition (%) [4]: 51.4%

SMILES: Nc1nc(CCC(=O)N2CCOC(CC3CCCCC3)C2)cs1 (stereo not drawn) [UCSD-0838977]
- IC50 [1]: 15 µM
- Emax [1]: 93.7%
- Emax [2]: 7.71%
- IC50 [2]: > 25 µM
- IC50 [3]: > 25 µM
- HepG2 Cytotoxicity primary screen (2uM): % Inhibition [4]: -10.55%
- HepG2 cytotoxicity 12pt dose response: Maximum inhibition (%) [4]: 8.43%

SMILES: CC(=O)c1ccc(N2CCC(CO)(CCOc3ccccc3)CC2)nc1 [UCSD-0839049]
- IC50 [1]: 14.6 µM
- Emax [1]: 105%
- Emax [2]: 13.2%
- IC50 [2]: > 25 µM
- IC50 [3]: > 25 µM
- HepG2 Cytotoxicity primary screen (2uM): % Inhibition [4]: 17.47%
- HepG2 cytotoxicity 12pt dose response: Maximum inhibition (%) [4]: 60.3%

SMILES: Cc1nc(N2CC[C@@H](NC(=O)c3cnccn3)[C@H](O)C2)c2ccsc2n1 [UCSD-0839060]
- IC50 [1]: 10.4 µM
- Emax [1]: 90.6%
- Emax [2]: 0.656%
- IC50 [2]: > 25 µM
- IC50 [3]: > 25 µM
- HepG2 Cytotoxicity primary screen (2uM): % Inhibition [4]: -14.64%
- HepG2 cytotoxicity 12pt dose response: Maximum inhibition (%) [4]: 48.7%

SMILES: c1ccc(-c2ccc(C3CNCCO3)nc2)cc1 (stereo not drawn) [UCSD-0839460]
- IC50 [1]: < 0.000141 µM
- Emax [1]: 80.4%
- Emax [2]: 89.9%
- IC50 [2]: 0.22 µM
- IC50 [3]: > 25 µM
- HepG2 Cytotoxicity primary screen (2uM): % Inhibition [4]: 6.27%
- HepG2 cytotoxicity 12pt dose response: Maximum inhibition (%) [4]: -1.08%

SMILES: COc1cccc(-c2noc(C3CCN(Cc4cn(C)nc4C)C3)n2)c1 (stereo not drawn) [UCSD-0839537]
- IC50 [1]: 9.44 µM
- Emax [1]: 86.1%
- Emax [2]: 60.2%
- IC50 [2]: 24 µM
- IC50 [3]: > 25 µM
- inhibition at 2 µM [3]: 5.3%
- HepG2 cytotoxicity 12pt dose response: Maximum inhibition (%) [4]: 4.79%

SMILES: COc1cc(CNCc2ccnc(N3CCCCC3)c2)cc(OC)c1 [UCSD-0841255]
- IC50 [1]: 11.3 µM
- Emax [1]: 85%
- Emax [2]: 1.69%
- IC50 [2]: > 25 µM
- IC50 [3]: > 25 µM
- HepG2 Cytotoxicity primary screen (2uM): % Inhibition [4]: -2.79%
- HepG2 cytotoxicity 12pt dose response: Maximum inhibition (%) [4]: 36.6%

SMILES: CC(C)c1n[nH]c(C(=O)Nc2ccccn2)c1Br [UCSD-0842403]
- IC50 [1]: < 0.000282 µM
- Emax [1]: 97.3%
- Emax [2]: 97.1%
- IC50 [2]: < 0.0244 µM
- IC50 [3]: > 50 µM
- inhibition at 2 µM [3]: 24.9%
- HepG2 cytotoxicity 12pt dose response: Maximum inhibition (%) [4]: 31.1%
